# Experiments:
# Ageratum conyzoides [1] = test: Herbicidal activity against Ageratum conyzoides in Abelmoschus esculentus plots assessed as weed cover at 1.32 kg a.i/ha after 4 weeks (reference value: 22.6 +/- 0.49 %); format: functional
# Talinum fruticosum [2] = test: Herbicidal activity against Talinum fruticosum in Abelmoschus esculentus plots assessed as weed cover at 0.99 kg a.i/ha after 4 weeks (reference value: 22.6 +/- 0.49 %); format: functional
# Talinum fruticosum [3] = test: Herbicidal activity against Talinum fruticosum in Abelmoschus esculentus plots assessed as minor weed growth at 0.99 kg a.i/ha after 2 weeks; format: functional
# [4] = tested on: Rottboellia cochinchinensis; test: Herbicidal activity against Rottboellia cochinchinensis in Abelmoschus esculentus plots assessed as major weed growth at 0.33 kg a.i/ha after 2 weeks; format: functional
# Euphorbia heterophylla [5] = test: Herbicidal activity against Euphorbia heterophylla in Corchorus olitorius plots assessed as major weed growth at 0.99 kg a.i/ha after 2 weeks; format: functional
# Euphorbia heterophylla [6] = test: Herbicidal activity against Euphorbia heterophylla in Corchorus olitorius plots assessed as major weed growth at 0.33 kg a.i/ha after 2 weeks; format: functional
# [7] = tested on: Rottboellia cochinchinensis; test: Herbicidal activity against Rottboellia cochinchinensis in Corchorus olitorius plots assessed as major weed growth at 0.33 kg a.i/ha after 2 weeks; format: functional
# Calopogonium mucunoides [8] = test: Herbicidal activity against Calopogonium mucunoides in Abelmoschus esculentus plots assessed as weed cover at 0.99 kg a.i/ha after 7 weeks (reference value: 14.7 +/- 0.46 %); format: functional
# Chromolaena odorata [9] = test: Herbicidal activity against Chromolaena odorata in Corchorus olitorius plots assessed as weed recovery at 1.32 kg a.i/ha after 2 weeks (reference value: 78.3 +/- 0.74 %); format: functional
# Calopogonium mucunoides [10] = test: Herbicidal activity against Calopogonium mucunoides in Corchorus olitorius plots assessed as weed recovery at 0.99 kg a.i/ha after 2 weeks (reference value: 78.3 +/- 0.74 %); format: functional
# Euphorbia heterophylla [11] = test: Herbicidal activity against Euphorbia heterophylla in Corchorus olitorius plots assessed as weed recovery at 0.99 kg a.i/ha after 2 weeks (reference value: 78.3 +/- 0.74 %); format: functional
# Synedrella nodiflora [12] = test: Herbicidal activity against Synedrella nodiflora in Abelmoschus esculentus plots assessed as weed cover at 0.66 kg a.i/ha after 2 weeks (reference value: 63.5 +/- 0.29 %); format: functional
# Corchorus olitorius [13] = test: Phytotoxicity in Corchorus olitorius assessed as crop seedling injury at 0.99 kg a.i/ha after 2 weeks relative to untreated control; format: organism-based; conditions: in vivo, 336 h
# Chromolaena odorata [14] = test: Herbicidal activity against Chromolaena odorata in Corchorus olitorius plots assessed as weed cover at 0.99 kg a.i/ha after 7 weeks (reference value: 1.7 +/- 0.56 %); format: functional
# [15] = tested on: Rottboellia cochinchinensis; test: Herbicidal activity against Rottboellia cochinchinensis in Abelmoschus esculentus plots assessed as weed cover at 0.33 kg a.i/ha after 7 weeks (reference value: 14.7 +/- 0.46 %); format: functional
# Abelmoschus esculentus [16] = test: Phytotoxicity in Abelmoschus esculentus assessed as seedling emergence at 0.99 kg a.i/ha treated to soil after 7 weeks (reference value: 95 +/- 0.05 %); format: organism-based; conditions: in vivo, other, 1176 h
# Corchorus olitorius [17] = test: Phytotoxicity in Corchorus olitorius assessed as root length at 0.99 kg a.i/ha applied as solution after 7 weeks (reference value: 14.3 +/- 1.06 mm); format: organism-based; conditions: in vivo, other, 1176 h
# Corchorus olitorius [18] = test: Phytotoxicity in Corchorus olitorius assessed as seedling injury at 0.33 kg a.i/ha applied as solution after 7 weeks relative to control; format: organism-based; conditions: in vivo, other, 1176 h
# Corchorus olitorius [19] = test: Phytotoxicity in Corchorus olitorius assessed as shoot length at 0.99 kg a.i/ha applied as solution after 7 weeks (reference value: 22.9 +/- 0.8 mm); format: organism-based; conditions: in vivo, other, 1176 h
# Corchorus olitorius [20] = test: Phytotoxicity in Corchorus olitorius assessed as shoot length at 0.66 kg a.i/ha applied as solution after 7 weeks (reference value: 22.9 +/- 0.8 mm); format: organism-based; conditions: in vivo, other, 1176 h
# Euphorbia heterophylla [21] = test: Herbicidal activity against Euphorbia heterophylla in Corchorus olitorius plots assessed as weed recovery at 0.66 kg a.i/ha after 2 weeks (reference value: 78.3 +/- 0.74 %); format: functional
# Synedrella nodiflora [22] = test: Herbicidal activity against Synedrella nodiflora in Corchorus olitorius plots assessed as weed recovery at 0.66 kg a.i/ha after 2 weeks (reference value: 78.3 +/- 0.74 %); format: functional
# Calopogonium mucunoides [23] = test: Herbicidal activity against Calopogonium mucunoides in Corchorus olitorius plots assessed as weed cover at 0.99 kg a.i/ha after 2 weeks (reference value: 81.7 +/- 0.43 %); format: functional
# Euphorbia heterophylla [24] = test: Herbicidal activity against Euphorbia heterophylla in Corchorus olitorius plots assessed as weed cover at 0.66 kg a.i/ha after 2 weeks (reference value: 81.7 +/- 0.43 %); format: functional
# Cyperus rotundus = test: Herbicidal activity against Cyperus rotundus form in Abelmoschus esculentus plots assessed as minor weed growth at 0.66 kg a.i/ha after 2 weeks; format: functional
# Calopogonium mucunoides [25] = test: Herbicidal activity against Calopogonium mucunoides in Abelmoschus esculentus plots assessed as major weed growth at 1.32 kg a.i/ha after 2 weeks; format: functional
# Synedrella nodiflora [26] = test: Herbicidal activity against Synedrella nodiflora in Corchorus olitorius plots assessed as weed cover at 1.32 kg a.i/ha after 7 weeks (reference value: 1.7 +/- 0.56 %); format: functional
# Abelmoschus esculentus [27] = test: Phytotoxicity in Abelmoschus esculentus assessed as shoot length at 0.66 kg a.i/ha applied as solution after 7 weeks (reference value: 28.7 +/- 0.34 mm); format: organism-based; conditions: in vivo, other, 1176 h
# Commelina diffusa [28] = test: Herbicidal activity against Commelina diffusa in Corchorus olitorius plots assessed as weed cover at 0.66 kg a.i/ha after 4 weeks (reference value: 20.1+/- 0.57 %); format: functional
# Corchorus olitorius [29] = test: Phytotoxicity in Corchorus olitorius assessed as shoot length at 1.32 kg a.i/ha treated to soil after 7 weeks (reference value: 23.7 +/- 0.10 mm); format: organism-based; conditions: in vivo, other, 1176 h
# Corchorus olitorius [30] = test: Phytotoxicity in Corchorus olitorius assessed as seedling emergence at 0.66 kg a.i/ha treated to soil after 7 weeks (reference value: 95 +/- 0.05 %); format: organism-based; conditions: in vivo, other, 1176 h
# Abelmoschus esculentus [31] = test: Phytotoxicity in Abelmoschus esculentus assessed as crop seedling injury at 0.66 kg a.i/ha after 2 weeks relative to untreated control; format: organism-based; conditions: in vivo, 336 h
# Commelina diffusa [32] = test: Herbicidal activity against Commelina diffusa in Abelmoschus esculentus plots assessed as weed recovery at 0.66 kg a.i/ha after 2 weeks (reference value: 60.1 +/- 0.46 %); format: functional
# Euphorbia heterophylla [33] = test: Herbicidal activity against Euphorbia heterophylla in Abelmoschus esculentus plots assessed as weed recovery at 0.66 kg a.i/ha after 2 weeks (reference value: 60.1 +/- 0.46 %); format: functional
# Ageratum conyzoides [34] = test: Herbicidal activity against Ageratum conyzoides in Corchorus olitorius plots assessed as weed cover at 1.32 kg a.i/ha after 4 weeks (reference value: 20.1+/- 0.57 %); format: functional
# Euphorbia heterophylla [35] = test: Herbicidal activity against Euphorbia heterophylla in Corchorus olitorius plots assessed as weed cover at 0.33 kg a.i/ha after 4 weeks (reference value: 20.1+/- 0.57 %); format: functional
# Calopogonium mucunoides [36] = test: Herbicidal activity against Calopogonium mucunoides in Corchorus olitorius plots assessed as weed cover at 1.32 kg a.i/ha after 2 weeks (reference value: 81.7 +/- 0.43 %); format: functional
smiles,measurement,setting,value
CCC(CC)Nc1c([N+](=O)[O-])cc(C)c(C)c1[N+](=O)[O-] [PENDIMETHALIN],Activity,Ageratum conyzoides [1],36.2%
same,Activity,Talinum fruticosum [2],39.2%
same,Activity,Talinum fruticosum [3],1 /m2
same,Activity,[4],31 /m2
same,Activity,Euphorbia heterophylla [5],31 /m2
same,Activity,Euphorbia heterophylla [6],31 /m2
same,Activity,[7],31 /m2
same,Activity,Calopogonium mucunoides [8],83.9%
same,Activity,Chromolaena odorata [9],13.3%
same,Activity,Calopogonium mucunoides [10],21.7%
same,Activity,Euphorbia heterophylla [11],21.7%
same,Activity,Synedrella nodiflora [12],50.8%
same,Activity,Corchorus olitorius [13],60%
same,Activity,Chromolaena odorata [14],95%
same,Activity,[15],90%
same,Activity,Abelmoschus esculentus [16],85%
same,Activity,Corchorus olitorius [17],2.5 mm
same,Activity,Corchorus olitorius [18],18.3%
same,Activity,Corchorus olitorius [19],5.7 mm
same,Activity,Corchorus olitorius [20],6 mm
same,Activity,Euphorbia heterophylla [21],33.3%
same,Activity,Synedrella nodiflora [22],33.3%
same,Activity,Calopogonium mucunoides [23],51.7%
same,Activity,Euphorbia heterophylla [24],51.7%
same,Activity,Cyperus rotundus,1 /m2
same,Activity,Calopogonium mucunoides [25],31 /m2
same,Activity,Synedrella nodiflora [26],95%
same,Activity,Abelmoschus esculentus [27],14.7 mm
same,Activity,Commelina diffusa [28],63.3%
same,Activity,Corchorus olitorius [29],19.4 mm
same,Activity,Corchorus olitorius [30],83.3%
same,Activity,Abelmoschus esculentus [31],42.1%
same,Activity,Commelina diffusa [32],47.9%
same,Activity,Euphorbia heterophylla [33],47.9%
same,Activity,Ageratum conyzoides [34],33.3%
same,Activity,Euphorbia heterophylla [35],73.3%
same,Activity,Calopogonium mucunoides [36],41.7%
